Assay results from patent US8519149B2, “Tricyclic compounds as mPGES-1 inhibitors” (Glenmark Pharmaceuticals S.A., priority 2010, dated 2013).

Molecular target: T1, Recombinant human mPGES-1 (Homo sapiens, UniProt O14684)
T1 sequence (O14684 1-152): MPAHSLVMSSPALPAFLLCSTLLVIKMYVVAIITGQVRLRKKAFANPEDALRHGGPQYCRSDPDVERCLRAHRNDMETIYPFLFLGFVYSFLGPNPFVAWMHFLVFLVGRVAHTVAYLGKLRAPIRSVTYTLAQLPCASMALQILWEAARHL
Assay: In-vitro mPGES-1 enzyme inhibition assay (PGE2 formation from PGH2, HTRF detection)
Format: biochemical
Details: for inhibition at 1 µM: read-out: Percentage inhibition at 1 μM; for inhibition at 10 µM: 10 μM test compound, read-out: Percentage inhibition at 10 μM; for IC50: class symbols, selected examples
Description: In-Vitro Protocol for Screening of mPGES-1 Inhibitors: mPGES-1 (microsomal prostaglandin E synthase-1) is a microsomal enzyme that converts endoperoxide substrate PGH2 (prostaglandin H2) to product PGE2 (prostaglandin E2) by isomerization in the presence of reduced glutathione (GSH). mPGES-1 inhibitors were screened by assessing their ability to inhibit formation of PGE2 from PGH2 in presence of mPGES-1 using anti-PGE2 antibody based detection method. […] Assay was set up using crude microsomal fractions at protein concentration of 40-60 μg/mL. […] Final concentration of DMSO in reaction was 0.5% (v/v). Negative controls comprised of all assay reagents except the enzyme. Positive controls comprised of enzyme reaction in the absence of any inhibitor. […] Reaction was stopped by addition of Stannous chloride (11 mg/ml) and PGE2 levels were measured ([…] et al. […] Inhibition of mPGES-1 enzyme activity was measured using percent of reaction occurring in the positive control. Concentration response curves were plotted using percent inhibition of maximum enzyme reaction. IC50 value was calculated from concentration response curve by nonlinear regression analysis using GraphPad PRISM software.

[1] = 1 μM test compound, recombinant human mPGES-1 microsomal fraction
[2] = recombinant human mPGES-1 microsomal fraction

CC1(C)Cc2c(c(C(=O)NCc3ccccc3C(F)(F)F)cc3nc(Nc4c(Cl)cncc4Cl)[nH]c23)O1 [Example-2, 2-[(3,5-Dichloropyridin-4-yl)amino]-7,7-dimethyl-N-[2-(trifluoromethyl)benzyl]-7,8-dihydro-1H-furo[3,2-e]benzimidazole-5-carboxamide]
inhibition at 1 µM [1]: 97% | inhibition at 10 µM [2]: 99.6% | IC50: < 50 nM

CCCCCCNC(=O)c1cc2nc(Nc3c(Cl)cncc3Cl)[nH]c2c2c1OC(C)(C)C2 [Example-3, 2-[(3,5-Dichloropyridin-4-yl)amino]-N-hexyl-7,7-dimethyl-7,8-dihydro-1H-furo[3,2-e]benzimidazole-5-carboxamide]
inhibition at 1 µM [1]: 99.1% | inhibition at 10 µM [2]: 99.5% | IC50: < 50 nM

CCCCCNC(=O)c1cc2nc(Nc3c(Cl)cncc3Cl)[nH]c2c2c1OC(C)(C)C2 [Example-4, 2-[(3,5-Dichloropyridin-4-yl)amino]-7,7-dimethyl-N-pentyl-7,8-dihydro-1H-furo[3,2-e]benzimidazole-5-carboxamide]
inhibition at 1 µM [1]: 94.4% | inhibition at 10 µM [2]: 95% | IC50: < 50 nM

CC(NC(=O)c1cc2nc(Nc3c(Cl)cncc3Cl)[nH]c2c2c1OC(C)(C)C2)C1CCCCC1 (stereo not shown) [Example-5, N-(1-Cyclohexylethyl)-2-[(3,5-dichloropyridin-4-yl)amino]-7,7-dimethyl-7,8-dihydro-1H-furo[3,2-e]benzimidazole-5-carboxamide]
inhibition at 1 µM [1]: 97.7% | inhibition at 10 µM [2]: 97.8% | IC50: < 50 nM

C[C@@H](NC(=O)c1cc2nc(Nc3c(Cl)cncc3Cl)[nH]c2c2c1OC(C)(C)C2)C(C)(C)C [Example-6]
inhibition at 1 µM [1]: 93.4% | inhibition at 10 µM [2]: 95.5% | IC50: < 50 nM

CC1(C)Cc2c(c(C(=O)NC3CCCCC3)cc3nc(Nc4c(Cl)cccc4Cl)[nH]c23)O1 [Example-7, N-Cyclohexyl-2-[(2,6-dichlorophenyl)amino]-7,7-dimethyl-7,8-dihydro-1H-furo[3,2-e]benzimidazole-5-carboxamide]
inhibition at 1 µM [1]: 100% | inhibition at 10 µM [2]: 96.2% | IC50: < 50 nM

CC1(C)Cc2c(c(C(=O)Nc3ccc(Br)cc3)cc3nc(Nc4c(Cl)cncc4Cl)[nH]c23)O1 [Example-8, N-(4-Bromophenyl)-2-[(3,5-dichloropyridin-4-yl)amino]-7,7-dimethyl-7,8-dihydro-1H-furo[3,2-e]benzimidazole-5-carboxamide]
inhibition at 1 µM [1]: 92.6% | inhibition at 10 µM [2]: 90.1% | IC50: < 50 nM

CCCCCNC(=O)c1cc2nc(Nc3c(Cl)cccc3Cl)[nH]c2c2c1OC(C)(C)C2 [Example-9, 2-[(2,6-Dichlorophenyl)amino]-7,7-dimethyl-N-pentyl-7,8-dihydro-1H-furo[3,2-e]benzimidazole-5-carboxamide]
inhibition at 1 µM [1]: 83% | inhibition at 10 µM [2]: 83.1% | IC50: < 50 nM

CC1(C)Cc2c(c(C(=O)Nc3ccc(C(F)(F)F)cc3)cc3nc(Nc4c(Cl)cncc4Cl)[nH]c23)O1 [Example-10, 2-[(3,5-Dichloropyridin-4-yl)amino]-7,7-dimethyl-N-[4-(trifluoromethyl)phenyl]-7,8-dihydro-1H-furo[3,2-e]benzimidazole-5-carboxamide]
inhibition at 1 µM [1]: 83.4% | inhibition at 10 µM [2]: 91.8%

CC1(C)Cc2c(c(C(=O)Nc3ccc(Br)cc3)cc3nc(Nc4c(Cl)cccc4Cl)[nH]c23)O1 [Example-11, N-(4-Bromophenyl)-2-[(2,6-dichlorophenyl)amino]-7,7-dimethyl-7,8-dihydro-1H-furo[3,2-e]benzimidazole-5-carboxamide]
Percentage inhibition at 1 μM (1 μM test compound, recombinant human mPGES-1 microsomal fraction, 1 µM): 97.45% | inhibition at 1 µM [1]: 100% | inhibition at 10 µM [2]: 100% | IC50: < 50 nM

Cc1cc2c(o1)c(C(=O)NC1CCCCC1)cc1nc(Nc3c(Cl)cccc3Cl)[nH]c12 [Example-13, N-Cyclohexyl-2-[(2,6-dichlorophenyl)amino]-7-methyl-1H-furo[3,2-e]benzimidazole-5-carboxamide]
inhibition at 1 µM [1]: 94.2% | inhibition at 10 µM [2]: 97.5%

CC1(C)CCCC(NC(=O)c2cc3nc(Nc4c(Cl)cncc4Cl)[nH]c3c3c2OC(C)(C)C3)C1 (stereo not shown) [Example-14, 2-[(3,5-Dichloropyridin-4-yl)amino]-N-(3,3-dimethylcyclohexyl)-7,7-dimethyl-7,8-dihydro-1H-furo[3,2-e]benzimidazole-5-carboxamide]
inhibition at 1 µM [1]: 100% | inhibition at 10 µM [2]: 100% | IC50: < 50 nM

CC1(C)Cc2c(c(C(=O)Nc3ccc(Cl)cc3)cc3nc(Nc4c(Cl)cncc4Cl)[nH]c23)O1 [Example-15, N-(4-Chlorophenyl)-2-[(3,5-dichloropyridin-4-yl)amino]-7,7-dimethyl-7,8-dihydro-1H-furo[3,2-e]benzimidazole-5-carboxamide]
inhibition at 1 µM [1]: 97.5% | inhibition at 10 µM [2]: 95.5% | IC50: < 50 nM

Cc1cc2c(o1)c(C(=O)NC1CCCCC1)cc1nc(Nc3ccccc3Cl)[nH]c12 [Example-16, 2-[(2-Chlorophenyl)amino]-N-cyclohexyl-7-methyl-1H-furo[3,2-e]benzimidazole-5-carboxamide]
inhibition at 1 µM [1]: 73.5% | inhibition at 10 µM [2]: 94.9%

CC1CC2CC(C1NC(=O)c1cc3nc(Nc4c(Cl)cncc4Cl)[nH]c3c3c1OC(C)(C)C3)C2(C)C (stereo not shown) [Example-17, 2-[(3,5-Dichloropyridin-4-yl)amino]-7,7-dimethyl-N-(3,6,6-trimethylbicyclo[3.1.1]hept-2-yl)-7,8-dihydro-1H-furo[3,2-e]benzimidazole-5-carboxamide]
inhibition at 1 µM [1]: 98% | inhibition at 10 µM [2]: 96.1% | IC50: < 50 nM

CC1(C)Cc2c(c(C(=O)Nc3ccc(Cl)cc3)cc3nc(Nc4ccccc4Cl)[nH]c23)O1 [Example-18, N-(4-Chlorophenyl)-2-[(2-chlorophenyl)amino]-7,7-dimethyl-7,8-dihydro-1H-furo[3,2-e]benzimidazole-5-carboxamide]
inhibition at 1 µM [1]: 98.4% | inhibition at 10 µM [2]: 99.8% | IC50: < 50 nM

CC1(C)Cc2c(c(C(=O)NC34CC5CC(CC(C5)C3)C4)cc3nc(Nc4c(Cl)cncc4Cl)[nH]c23)O1 [Example-19, N-Adamantan-1-yl-2-[(3,5-dichloropyridin-4-yl)amino]-7,7-dimethyl-7,8-dihydro-1H-furo[3,2-e]benzimidazole-5-carboxamide]
inhibition at 1 µM [1]: 97.8% | inhibition at 10 µM [2]: 98.3% | IC50: < 50 nM

CC1(C)Cc2c(c(C(=O)N3CCOCC3)cc3nc(Nc4c(Cl)cncc4Cl)[nH]c23)O1 [Example-20, {2-[(3,5-Dichloropyridin-4-yl)amino]-7,7-dimethyl-7,8-dihydro-1H-furo[3,2-e]benzimidazol-5-yl}(morpholin-4-yl)methanone]
inhibition at 1 µM [1]: 10.5% | inhibition at 10 µM [2]: 44.9%

CC1(C)Cc2c(c(C(=O)NCC3CC3)cc3nc(Nc4c(Cl)cncc4Cl)[nH]c23)O1 [Example-21, N-(Cyclopropylmethyl)-2-[(3,5-dichloropyridin-4-yl)amino]-7,7-dimethyl-7,8-dihydro-1H-furo[3,2-e]benzimidazole-5-carboxamide]
inhibition at 1 µM [1]: 96.8% | inhibition at 10 µM [2]: 99.8%

Cc1cc2c(o1)c(C(=O)NCc1ccc(F)cc1)cc1nc(Nc3c(Cl)cncc3Cl)[nH]c12 [Example-22, 2-[(3,5-Dichloropyridin-4-yl)amino]-N-(4-fluorobenzyl)-7-methyl-1H-furo[3,2-e]benzimidazole-5-carboxamide]
inhibition at 1 µM [1]: 85.8% | inhibition at 10 µM [2]: 98.8%
